Data on five molecules can be found in US12391737B2, “Soluble NPY2 receptor agonists” (Boehringer Ingelheim International GmbH, priority 2020, dated 2025).

Series [1] can be described thus: Solubility determination. As to conditions: for Sol6: pH 6; for Sol7: pH 7. In short, it runs like this:
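Shake-flask style: 10 mg/ml peptide (TFA salt), 0.1 M sodium diphosphate pH 6.4/7.0, 600 rpm, 2 h, RT; filter; dilute 1 mg/ml in 50% MeCN; RP-UPLC, 0–100% B over 2 min, 50 °C. Solubility = sample/control area ratio. Final pH recorded.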

The target of series [2] is T1, Human Neuropeptide Y2 Receptor (Homo sapiens, UniProt P49146).
T1 construct: purchased CHEMICON HTS066M
T1 sequence (P49146 1-381): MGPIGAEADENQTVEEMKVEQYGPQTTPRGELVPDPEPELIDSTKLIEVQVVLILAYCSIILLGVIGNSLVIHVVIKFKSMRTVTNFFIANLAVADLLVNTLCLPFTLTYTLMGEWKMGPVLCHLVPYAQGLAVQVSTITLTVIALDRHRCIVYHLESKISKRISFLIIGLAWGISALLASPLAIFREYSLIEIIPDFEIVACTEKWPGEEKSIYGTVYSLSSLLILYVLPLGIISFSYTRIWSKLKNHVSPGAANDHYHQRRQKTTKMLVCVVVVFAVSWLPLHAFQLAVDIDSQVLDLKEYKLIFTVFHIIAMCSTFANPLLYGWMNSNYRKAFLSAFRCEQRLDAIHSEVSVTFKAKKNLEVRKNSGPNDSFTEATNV
In words: Radioligand binding competition assay (RLB). To be noted: Table 3, 125I-PYY(1-36) competition; read-out: Ki. In short, it runs like this:
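Displacement of radioligand is measured after 2 h at room temperature with receptor membranes in Mg2+/Ca2+ HEPES buffer, pH 7.4. Filter-bound radioactivity is counted and IC50 obtained from curve fitting.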

As a reminder, the Ki is the equilibrium dissociation constant of an inhibitor or competing ligand from its target.

*1 amine or outer side, *2 acyl side, *3 side chain or, on linkers, in order; H or OH if unused. Where a SMILES comes first, the peptide text is derived from it. Side-chain parts run from the residue outwards. The star is where a group is joined. C18 diacid = O=C(O)CCCCCCCCCCCCCCCCC(=O)*; γGlu = O=C(O)[C@H](CCC(=O)[*:2])N[*:1]; Isovaleryl = CC(C)CC(=O)*; Ahx = NCCCCCC(=O)O Some results are limits rather than exact numbers.

Consider `CC[C@H](C)[C@H](NC(=O)[C@H](CCC(=O)O)NC(=O)[C@H](CCC(=O)O)NC(=O)[C@@H]1CCCN1C(=O)[C@H](CCC(=O)O)NC(=O)[C@H](C)NC(=O)[C@H](C)NC(=O)[C@H](C)NC(=O)[C@H](CCC(=O)O)NC(=O)[C@@H]1CCCN1C(=O)[C@H](CCCCNC(=O)CCCCCNC(=O)CC[C@H](NC(=O)CCCCCCCCCCCCCCCCC(=O)O)C(=O)O)NC(=O)[C@H](CCC(=O)O)NC(=O)[C@@H]1CCCN1C(=O)[C@H](C)NC(=O)CC(C)C)C(=O)N[C@@H](CCC(N)=O)C(=O)N[C@@H](CCCNC(=N)N)C(=O)N[C@@H](Cc1ccc(O)cc1)C(=O)N[C@@H](Cc1ccc(O)cc1)C(=O)N[C@H](C(=O)N[C@@H](C)C(=O)N[C@@H](CC(C)C)C(=O)N[C@@H](CCCNC(=N)N)C(=O)N[C@@H](Cc1c[nH]cn1)C(=O)N[C@@H](Cc1ccc(O)cc1)C(=O)N[C@@H](Cc1ccc(O)cc1)C(=O)N[C@@H](CC(N)=O)C(=O)N[C@@H](Cc1c[nH]c2ccccc12)C(=O)N[C@@H](CC(C)C)C(=O)N[C@H](C(=O)N[C@@H](CCCNC(=N)N)C(=O)N[C@@H](CCC(N)=O)C(=O)N[C@@H](CCCNC(=N)N)C(=O)N[C@@H](Cc1ccc(O)cc1)C(N)=O)[C@@H](C)O)C(C)C` [Compound 135, N{alpha-4}-(3-methylbutanoyl)-N{epsilon-7}-(6-[(4S)-4-carboxy-4-(17-carboxyheptadecanamido)butanamido]hexanoyl)-[4A,7K,9E,10A,11A,13E,17I,18Q,22V,23A,28Y,30W,31L]-hPYY(4-36)] (Isovaleryl-APEK([Ahx-γGlu-C18 diacid])PEAAAEPEEIQRYYVALRHYYNWLTRQRY-NH2), for which, in series [1], the “Sol6” value came out at 0.2 mg/mL and the “Sol7” value was >10.0 mg/mL. Also, the inhibition constant Ki in series [2] was found to be 3.83 nM.
`CC(C)CC(=O)N[C@@H](C)C(=O)N1CCC[C@H]1C(=O)N[C@@H](CCC(=O)O)C(=O)N[C@@H](CCCCNC(=O)CCCCCNC(=O)CC[C@H](NC(=O)CCCCCCCCCCCCCCCCC(=O)O)C(=O)O)C(=O)N1CCC[C@H]1C(=O)N[C@@H](CCC(=O)O)C(=O)N[C@@H](CCC(=O)O)C(=O)N[C@@H](CC(=O)O)C(=O)N[C@@H](C)C(=O)N[C@H](C(=O)N1CCC[C@H]1C(=O)N[C@@H](CCC(=O)O)C(=O)N[C@@H](CCC(=O)O)C(=O)N[C@@H](CC(C)C)C(=O)N[C@@H](CCC(N)=O)C(=O)N[C@@H](CCCNC(=N)N)C(=O)N[C@@H](Cc1ccc(O)cc1)C(=O)N[C@@H](Cc1ccc(O)cc1)C(=O)N[C@H](C(=O)N[C@@H](CO)C(=O)N[C@@H](CC(C)C)C(=O)N[C@@H](CCCNC(=N)N)C(=O)N[C@@H](Cc1c[nH]cn1)C(=O)N[C@@H](Cc1ccc(O)cc1)C(=O)N[C@@H](Cc1ccc(O)cc1)C(=O)N[C@@H](CC(N)=O)C(=O)N[C@@H](Cc1c[nH]c2ccccc12)C(=O)N[C@@H](CC(C)C)C(=O)N[C@@H](CC(C)C)C(=O)N[C@@H](CCCNC(=N)N)C(=O)N[C@@H](CCC(N)=O)C(=O)N[C@@H](CCCNC(=N)N)C(=O)N[C@@H](Cc1ccc(O)cc1)C(N)=O)C(C)C)[C@@H](C)O` [Compound 137, N{alpha-4}-(3-methylbutanoyl)-N{epsilon-7}-(6-[(4S)-4-carboxy-4-(17-carboxyheptadecanamido)butanamido]hexanoyl)-[4A,7K,9E,13T,18Q,22V,28Y,30W,31L,32L]-hPYY(4-36)]: in series [1], the “Sol6” value is >10.0 mg/mL and the “Sol7” value was >10.0 mg/mL. Besides, the inhibition constant (Ki) in series [2] was found to be 49.6 nM.
For `CC(C)CC(=O)N[C@@H](C)C(=O)N1CCC[C@H]1C(=O)N[C@@H](CCC(=O)O)C(=O)N[C@@H](CCCCNC(=O)CCCCCNC(=O)CC[C@H](NC(=O)CCCCCCCCCCCCCCCCC(=O)O)C(=O)O)C(=O)N1CCC[C@H]1C(=O)N[C@@H](CCC(=O)O)C(=O)N[C@@H](CCC(=O)O)C(=O)N[C@@H](CC(=O)O)C(=O)N[C@@H](C)C(=O)N[C@@H](CCC(=O)O)C(=O)N1CCC[C@H]1C(=O)N[C@@H](CCC(=O)O)C(=O)N[C@@H](CCC(=O)O)C(=O)N[C@@H](CC(C)C)C(=O)N[C@@H](CCC(N)=O)C(=O)N[C@@H](CCC(=O)O)C(=O)N[C@@H](Cc1ccc(O)cc1)C(=O)N[C@@H](Cc1ccc(O)cc1)C(=O)N[C@H](C(=O)N[C@@H](CO)C(=O)N[C@@H](CC(C)C)C(=O)N[C@@H](CCCNC(=N)N)C(=O)N[C@@H](Cc1c[nH]cn1)C(=O)N[C@@H](Cc1ccc(O)cc1)C(=O)N[C@@H](Cc1ccc(O)cc1)C(=O)N[C@@H](CC(N)=O)C(=O)N[C@@H](Cc1c[nH]c2ccccc12)C(=O)N[C@@H](CC(C)C)C(=O)N[C@H](C(=O)N[C@@H](CCCNC(=N)N)C(=O)N[C@@H](CCC(N)=O)C(=O)N[C@@H](CCCNC(=N)N)C(=O)N[C@@H](Cc1ccc(O)cc1)C(N)=O)[C@@H](C)O)C(C)C` [Compound 138, N{alpha-4}-(3-methylbutanoyl)-N{epsilon-7}-(6-[(4S)-4-carboxy-4-(17-carboxyheptadecanamido)butanamido]hexanoyl)-[4A,7K,9E,13E,18Q,19E,22V,28Y,30W,31L]-hPYY(4-36)], in series [1], the “Sol6” value was determined as 9.9 mg/mL and the “Sol7” value amounted to 9.5 mg/mL. Besides, the Ki in series [2] came to 12.5 nM.
As to `CC(C)CC(=O)N[C@@H](C)C(=O)N1CCC[C@H]1C(=O)N[C@@H](CCC(=O)O)C(=O)N[C@@H](CCCCNC(=O)CCCCCNC(=O)CC[C@H](NC(=O)CCCCCCCCCCCCCCCCC(=O)O)C(=O)O)C(=O)N1CCC[C@H]1C(=O)N[C@@H](CCC(=O)O)C(=O)N[C@@H](CCC(=O)O)C(=O)N[C@@H](CCC(=O)O)C(=O)N[C@@H](C)C(=O)N[C@@H](CO)C(=O)N1CCC[C@H]1C(=O)N[C@@H](C)C(=O)N[C@@H](CCC(=O)O)C(=O)N[C@@H](CC(C)C)C(=O)N[C@@H](CCC(N)=O)C(=O)N[C@@H](CCCNC(=N)N)C(=O)N[C@@H](Cc1ccc(O)cc1)C(=O)N[C@@H](Cc1ccc(O)cc1)C(=O)N[C@H](C(=O)N[C@@H](CO)C(=O)N[C@@H](CC(C)C)C(=O)N[C@@H](CCCNC(=N)N)C(=O)N[C@@H](Cc1c[nH]cn1)C(=O)N[C@@H](Cc1ccc(O)cc1)C(=O)N[C@@H](Cc1ccc(O)cc1)C(=O)N[C@@H](CC(N)=O)C(=O)N[C@@H](Cc1c[nH]c2ccccc12)C(=O)N[C@@H](CC(C)C)C(=O)N[C@H](C(=O)N[C@@H](CCCNC(=N)N)C(=O)N[C@@H](CCC(N)=O)C(=O)N[C@@H](CCCNC(=N)N)C(=O)N[C@@H](Cc1ccc(O)cc1)C(N)=O)[C@@H](C)O)C(C)C` [Compound 139, N{alpha-4}-(3-methylbutanoyl)-N{epsilon-7}-(6-[(4S)-4-carboxy-4-(17-carboxyheptadecanamido)butanamido]hexanoyl)-[4A,7K,9E,11E,15A,18Q,22V,28Y,30W,31L]-hPYY(4-36)] (Isovaleryl-APEK([Ahx-γGlu-C18 diacid])PEEEASPAELQRYYVSLRHYYNWLTRQRY-NH2), in series [1], the “Sol6” value was found to be 7.3 mg/mL and the “Sol7” value amounted to 8.8 mg/mL. In addition, the Ki in series [2] turned out to be 3.6 nM.
On the same counts, the results for `CC(C)CC(=O)N[C@@H](C)C(=O)N1CCC[C@H]1C(=O)N[C@@H](CCC(=O)O)C(=O)N[C@@H](CCCCNC(=O)CCCCCNC(=O)CC[C@H](NC(=O)CCCCCCCCCCCCCCCCC(=O)O)C(=O)O)C(=O)N1CCC[C@H]1C(=O)N[C@@H](CCC(=O)O)C(=O)N[C@@H](CCC(=O)O)C(=O)N[C@@H](CC(=O)O)C(=O)N[C@@H](C)C(=O)N[C@H](C(=O)N1CCC[C@H]1C(=O)N[C@@H](CCC(=O)O)C(=O)N[C@@H](CCC(=O)O)C(=O)N[C@@H](CC(C)C)C(=O)N[C@@H](CCC(N)=O)C(=O)N[C@@H](CO)C(=O)N[C@@H](Cc1ccc(O)cc1)C(=O)N[C@@H](Cc1ccc(O)cc1)C(=O)N[C@H](C(=O)N[C@@H](CO)C(=O)N[C@@H](CC(C)C)C(=O)N[C@@H](CCCNC(=N)N)C(=O)N[C@@H](Cc1c[nH]cn1)C(=O)N[C@@H](Cc1ccc(O)cc1)C(=O)N[C@@H](Cc1ccc(O)cc1)C(=O)N[C@@H](CC(N)=O)C(=O)N[C@@H](Cc1c[nH]c2ccccc12)C(=O)N[C@@H](CC(C)C)C(=O)N[C@H](C(=O)N[C@@H](CCCNC(=N)N)C(=O)N[C@@H](CCC(N)=O)C(=O)N[C@@H](CCCNC(=N)N)C(=O)N[C@@H](Cc1ccc(O)cc1)C(N)=O)[C@@H](C)O)C(C)C)[C@@H](C)O` [Compound 141, N{alpha-4}-(3-methylbutanoyl)-N{epsilon-7}-(6-[(4S)-4-carboxy-4-(17-carboxyheptadecanamido)butanamido]hexanoyl)-[4A,7K,9E,13T,18Q,19S,22V,28Y,30W,31L]-hPYY(4-36)] are 9.6 mg/mL, 9.7 mg/mL and 8.17 nM.
